# Source: US9242008B2, “Mineral amino-acid complexes of fatty acids” (Thetis Pharmaceuticals LLC, priority 2014, dated 2016)
# Columns and labels:
# [1] = single dose, oral pharmacokinetic study in rats (total EPA plasma levels); format: in vivo
# From the text: The results of a single dose, oral pharmacokinetic study in rats for a compound of Formula III (designated TP-252, Mg-Lys2-EPA2) are shown in Table 1 below. One of the parameters shown in Table 1 is the area under the curve (AUC), which is the integral of a plot of concentration of drug in blood plasma against time. The AUC is proportional to the total amount of the active pharmaceutical agent (API) that reaches the blood circulation. In this example, the API (or analyte) is EPA. AUC and Cmax are given for the compound of Formula III, EPA free fatty acid (EPA FFA), and EPA ethyl ester (EPA EE). EPA ethyl ester is the FDA-approved form of EPA.
# [2] = Physical stability study (proton NMR after exposure to air at room temperature); format: physicochemical
# From the text: FIG. 1: Proton NMR spectrum of magnesium bis-lysinate bis-EPA taken on the day the compound was synthesized (upper trace) and 60-days later (lower trace) with the compound having been exposed to air at room temperature for the entire 60-day period.
# The compounds of the invention are remarkably stable compared to omega-3 polyunsaturated free fatty acids, which typically show evidence of oxidative degradation with hours of exposure to atmospheric oxygen. […] The upper tracing in FIG. 1 is a proton NMR spectrum of magnesium bis-lysinate bis-EPA taken on the day the compound was synthesized. The lower tracing is the NMR taken 60-days later with the compound having been exposed to air at room temperature for the entire period.
compound,measurement,setting,value
"CC/C=C\C/C=C\C/C=C\C/C=C\C/C=C\CCCC(=O)O.CC/C=C\C/C=C\C/C=C\C/C=C\C/C=C\CCCC(=O)O.NCCCC[C@H](N)C(=O)[O-].NCCCC[C@H](N)C(=O)[O-].[Mg+2] [TP-252, magnesium bis-lysinate bis-EPA dihydrate]",EPA delivered to the blood plasma versus equivalent doses of EPA free fatty acid or EPA ethyl ester,[1],delivers significantly more EPA to the blood plasma
same,Baseline and EPA Molar Dose Equivalent Adjusted Cmax of Total EPA in plasma,"[1]; total dose 40.0 mg/kg, analyte EPA, Cmax minus predose level, multiplied by EPA molar dose adjustment factor",13.2 µg/mL
same,Baseline and EPA Molar Dose Equivalent Adjusted AUC0-18 hrs of Total EPA in plasma,"[1]; total dose 40.0 mg/kg, analyte EPA, baseline adjusted and multiplied by EPA molar dose adjustment factor",133 µg·h/mL
same,proton NMR evidence of oxidation or degradation,[2]; after 60 days exposed to air at room temperature versus day of synthesis,no evidence of oxidation or degradation by other mechanisms
same,time chemically stable,"[2]; room temperature, exposed to air",at least 60 days
